Legend:
HeLa = test: Cytotoxicity in human HeLa cells assessed as reduction in cell viability incubated for 24 to 72 hrs by MTT assay; format: functional, cell-based
[1] = Cytotoxicity in human M17 cells assessed as reduction in cell viability incubated for 48 hrs by MTT assay; format: functional, cell-based
KYSE-510 = test: Cytotoxicity in human KYSE-510 cells assessed as reduction in cell viability incubated for 24 to 72 hrs by MTT assay; format: functional, cell-based
[2] = Cytotoxicity in human SP6.5 cells assessed as reduction in cell viability incubated for 48 hrs by MTT assay; format: functional, cell-based
Caco-2 = test: Inhibition of cell proliferation of human Caco2 cells at 1500 umol/L incubated for 1 to 3 days by trypan blue dye based hemocytometry relative to untreated control; format: functional
Ehrlich [3] = test: Antitumour activity against mouse EAC implanted in BALB/c mouse assessed as inhibition of tumor growth at 100 mg/kg, ip dosed consecutively from day 1 to 9 relative to untreated control; format: functional; conditions: 24 h, read-out: TGI
Ehrlich [4] = test: Antitumour activity against mouse EAC implanted in BALB/c mouse assessed as inhibition of solid tumor growth at 100 mg/kg, ip dosed consecutively from day 1 to 9 relative to untreated control; format: functional; conditions: 24 h, read-out: TGI

O=c1cc(-c2ccccc2)oc2cc(O)cc(O)c12 [CHRYSIN]
IC50 (HeLa): 14.2 µM | IC50 [1]: 35.8 µM | IC50 (KYSE-510): 63 µM | IC50 [2]: 28.3 µM

O=C(O)/C=C/c1ccc(O)cc1 [COUMARIC ACID]
inhibition at 1500 µM (Caco-2): 43 to 75%

C=CCc1ccc(O)c(OC)c1 [EUGENOL]
inhibition in vivo at 100 mg/kg (Ehrlich [3]): 28.9% | inhibition in vivo at 100 mg/kg (Ehrlich [4]): 24.4%
